Assays:
WT mice = assay: Contextual and auditory fear conditioning; type: in vivo, mouse; settings: PKRi 0.1 mg/kg i.p. immediately after training, n=8
Description: The experimenter was blind to the genotype for all behavioral tests. Fear conditioning was performed as previously described (Costa-Mattioli et al., 2007). Mice were first handled for 3-5 min for 3 days and then habituated to the conditioning chamber for 20 min for another 3 days. On the training day, after 2 min in the conditioning chamber, mice received a pairing of a tone (2800 Hz, 85 db, 30 s) with a co-terminating foot-shock (0.35 mA, 1 s), after which they remained in the chamber for two additional min and then were returned to their home cages. Mice were tested 24 hr after training for “freezing” (immobility with the exception of respiration) in response to the tone (in a chamber to which they had not been conditioned) and to the training context (training chamber).
During testing for auditory fear conditioning, mice were placed in the chamber and freezing responses were recorded during the initial 2 min (pre-CS period) and during the last 3 min when the tone was played. Mice were returned to their cages 30 s after the end of the tone. […] For extinction trials, freezing in response to the conditioned context was assessed for 5 min, 24 hr, 48 hr, 72 hr and 96 hr after training and normalized to the amount of freezing obtained at 24 hr. For all tests, freezing behavior was determined at 5 s intervals during a 5 min period. […]

[1] = system: Pkr−/− hippocampal slices; type: cell-based, mouse
Description: (§1) Field recording: horizontal hippocampal slices ([…]) were cut from brains of WT or age-matched Pkr^−/− littermates in 4° C. artificial cerebrospinal fluid (ACSF) and kept in ACSF at room temperature for at least one hr before recording, as described (Zhu et al., 2005). Slices were maintained in an interface-type chamber perfused with oxygenated ACSF (95% O2 and 5% CO2) containing in mM: 124 NaCl, 2.0 KCl, 1.3 MgSO4, 2.5 CaCl2, 1.2 KH2PO4, 25 NaHCO3, and 10 glucose (2-3 ml/min). Bipolar stimulating electrodes were placed in the CA1 stratum radiatum to stimulate Schaffer collateral and commissural fibers. Field potentials were recorded using ACSF-filled micropipettes at 28-29° C. The recording electrodes were placed in the stratum radiatum for field excitatory postsynaptic potentials (fEPSPs), and stratum pyramidale for population spikes. The stimulus strength of the 0.1 ms pulses was adjusted to evoke 30-35% of maximum response for fEPSPs, and 50% of maximal response for population spikes. A stable baseline of responses was established for at least 30 min at 0.033 Hz. Tetanic LTP was induced by high-frequency stimulation in brief trains (100 Hz, 1 s), applied either as a single train or four trains separated by 5 min intervals. A short train consisted of 5 stimuli (100 Hz within-burst). When indicated, ACSF was supplemented with anisomycin (Calbiochem, Calif.), PKRi (Calbiochem, Calif.), bicuculline (Tocris) or diazepam (Sigma-Aldrich). It should be noted that the inventors used bicuculline free base which only blocks GABAA receptor rather than bicuculline-M (bicuculline methiodide, methobromide or methochloride) which in addition to GABAA receptor also blocks small conductance (SK) calcium-activated potassium channels (Debarbieux et al., 1998). […] To reduce day-to-day variations, whenever possible simultaneous recordings (in the same chamber) were obtained from slices from Pkr^−/− mice and WT littermates treated with drugs or vehicle. Statistical analysis was performed using t-test and two-way ANOVA. […]

WT hippocampal slices = assay: Tetanic LTP (E-LTP/L-LTP) in hippocampal slices; type: cell-based, mouse
Description: as §1

PKR [2] = target: T1, PKR (Homo sapiens, UniProt P19525); settings: Jammi et al., 2003; Shimazawa and Hara, 2006; cited from earlier work
T1 sequence (P19525 whole entry): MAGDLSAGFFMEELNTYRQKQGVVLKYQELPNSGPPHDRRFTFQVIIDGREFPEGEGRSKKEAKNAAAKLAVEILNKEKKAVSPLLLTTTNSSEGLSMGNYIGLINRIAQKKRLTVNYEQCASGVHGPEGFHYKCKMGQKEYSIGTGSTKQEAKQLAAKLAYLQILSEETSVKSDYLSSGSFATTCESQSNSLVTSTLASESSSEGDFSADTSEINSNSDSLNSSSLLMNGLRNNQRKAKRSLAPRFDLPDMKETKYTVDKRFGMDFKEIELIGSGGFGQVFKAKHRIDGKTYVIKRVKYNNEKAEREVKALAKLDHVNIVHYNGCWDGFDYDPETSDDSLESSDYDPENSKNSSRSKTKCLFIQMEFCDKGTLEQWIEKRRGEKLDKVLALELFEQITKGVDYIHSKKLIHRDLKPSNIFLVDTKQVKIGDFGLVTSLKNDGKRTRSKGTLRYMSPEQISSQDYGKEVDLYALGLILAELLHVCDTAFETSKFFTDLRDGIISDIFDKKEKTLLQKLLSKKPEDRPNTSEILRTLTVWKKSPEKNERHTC

[3] = system: hippocampal slices from WT mice; assay: Field recording (population spikes, fEPSPs) in CA1 of hippocampal slices; type: cell-based, mouse
Description: Field recording: horizontal hippocampal slices ([…]) were cut from brains of WT or age-matched Pkr^−/− littermates in 4° C. artificial cerebrospinal fluid (ACSF) and kept in ACSF at room temperature for at least one hr before recording, as described (Zhu et al., 2005). Slices were maintained in an interface-type chamber perfused with oxygenated ACSF (95% O2 and 5% CO2) containing in mM: 124 NaCl, 2.0 KCl, 1.3 MgSO4, 2.5 CaCl2, 1.2 KH2PO4, 25 NaHCO3, and 10 glucose (2-3 ml/min). Bipolar stimulating electrodes were placed in the CA1 stratum radiatum to stimulate Schaffer collateral and commissural fibers. Field potentials were recorded using ACSF-filled micropipettes at 28-29° C. The recording electrodes were placed in the stratum radiatum for field excitatory postsynaptic potentials (fEPSPs), and stratum pyramidale for population spikes. The stimulus strength of the 0.1 ms pulses was adjusted to evoke 30-35% of maximum response for fEPSPs, and 50% of maximal response for population spikes. A stable baseline of responses was established for at least 30 min at 0.033 Hz. Tetanic LTP was induced by high-frequency stimulation in brief trains (100 Hz, 1 s), applied either as a single train or four trains separated by 5 min intervals. A short train consisted of 5 stimuli (100 Hz within-burst). When indicated, ACSF was supplemented with anisomycin (Calbiochem, Calif.), PKRi (Calbiochem, Calif.), bicuculline (Tocris) or diazepam (Sigma-Aldrich). It should be noted that the inventors used bicuculline free base which only blocks GABAA receptor rather than bicuculline-M (bicuculline methiodide, methobromide or methochloride) which in addition to GABAA receptor also blocks small conductance (SK) calcium-activated potassium channels (Debarbieux et al., 1998). […] To reduce day-to-day variations, whenever possible simultaneous recordings (in the same chamber) were obtained from slices from Pkr^−/− mice and WT littermates treated with drugs or vehicle. Statistical analysis was performed using t-test and two-way ANOVA. All data are presented as means±SEM and “n” indicates the number of slices.

adult WT mice = assay: Video EEG recordings in freely moving mice; type: in vivo, mouse
Description: Pkr knockout (Pkr^−/−) mice (Abraham et al., 1999) were back-crossed for at least eight generations to 129SvEv mice. Mice were weaned at the third postnatal week and genotyped by PCR. Briefly, the mutant and corresponding WT alleles are detected by a four-primer PCR assay in which Oligo-1 (5′-GGAACITrGGAGCAATGGA-3′) and Oligo-2 (5′-[…]-3′) give a WT band of 225 base-pair fragment and Oligo-3 (5′-TGTTCTGTGGCTATCAGGG-3′) and Oligo-4 (5′-[…]-3′) give a 432 base-pair fragment from the deleted allele. eIF2α^+/S51A mice were previously described (Costa-Mattioli et al., 2007; Scheuner et al., 2001). All experiments were performed on 8-16 weeks old males. The mice were kept on a 12 h light/dark cycle, and the behavioral experiments were always conducted during the light phase of the cycle. The mice had access to food and water ad libitum, except during tests. […]
PKRi (Calbiochem, San Diego), a potent ATP-binding-site-directed inhibitor of PKR which blocks PKR autophosphorylation (Jammi et al., 2003; Shimazawa and Hara, 2006), was prepared as a 20 mM stock solution in DMSO (dimethyl sufloxide). PKRi was freshly dissolved in saline and then injected intraperitoneally (i.p.) at a dose of 0.1 mg/kg and the EEG was recorded 1 hr after injection. A digital video camera simultaneously monitored behavior during the EEG recordings. […]

PKR [4] = target: T1, PKR; settings: final concentration of 1 μM (Page et al., 2006; Wang et al., 2007); cited from earlier work
[5] = system: CA1 neurons in Pkr−/− hippocampal slices; assay: Whole-cell patch clamp recording of synaptic currents; type: cell-based, mouse; settings: PKRi
[6] = system: hippocampal slices from Pkr−/− mice; assay: Field recording (population spikes) in CA1 of hippocampal slices; type: cell-based, mouse; settings: PKRi
Description: Field recording: horizontal hippocampal slices ([…]) were cut from brains of WT or age-matched Pkr^−/− littermates in 4° C. artificial cerebrospinal fluid (ACSF) and kept in ACSF at room temperature for at least one hr before recording, as described (Zhu et al., 2005). Slices were maintained in an interface-type chamber perfused with oxygenated ACSF (95% O2 and 5% CO2) containing in mM: 124 NaCl, 2.0 KCl, 1.3 MgSO4, 2.5 CaCl2, 1.2 KH2PO4, 25 NaHCO3, and 10 glucose (2-3 ml/min). Bipolar stimulating electrodes were placed in the CA1 stratum radiatum to stimulate Schaffer collateral and commissural fibers. Field potentials were recorded using ACSF-filled micropipettes at 28-29° C. The recording electrodes were placed in the stratum radiatum for field excitatory postsynaptic potentials (fEPSPs), and stratum pyramidale for population spikes. The stimulus strength of the 0.1 ms pulses was adjusted to evoke 30-35% of maximum response for fEPSPs, and 50% of maximal response for population spikes. A stable baseline of responses was established for at least 30 min at 0.033 Hz. Tetanic LTP was induced by high-frequency stimulation in brief trains (100 Hz, 1 s), applied either as a single train or four trains separated by 5 min intervals. A short train consisted of 5 stimuli (100 Hz within-burst). […]

[7] = system: CA1 neurons in WT hippocampal slices; type: cell-based, mouse
PKR [8] = target: T2, PKR (Rattus norvegicus, UniProt Q63184); settings: dose of 0.1 mg/kg i.p. (Ingrand et al., 2007); cited from earlier work
T2 sequence (Q63184 1-513): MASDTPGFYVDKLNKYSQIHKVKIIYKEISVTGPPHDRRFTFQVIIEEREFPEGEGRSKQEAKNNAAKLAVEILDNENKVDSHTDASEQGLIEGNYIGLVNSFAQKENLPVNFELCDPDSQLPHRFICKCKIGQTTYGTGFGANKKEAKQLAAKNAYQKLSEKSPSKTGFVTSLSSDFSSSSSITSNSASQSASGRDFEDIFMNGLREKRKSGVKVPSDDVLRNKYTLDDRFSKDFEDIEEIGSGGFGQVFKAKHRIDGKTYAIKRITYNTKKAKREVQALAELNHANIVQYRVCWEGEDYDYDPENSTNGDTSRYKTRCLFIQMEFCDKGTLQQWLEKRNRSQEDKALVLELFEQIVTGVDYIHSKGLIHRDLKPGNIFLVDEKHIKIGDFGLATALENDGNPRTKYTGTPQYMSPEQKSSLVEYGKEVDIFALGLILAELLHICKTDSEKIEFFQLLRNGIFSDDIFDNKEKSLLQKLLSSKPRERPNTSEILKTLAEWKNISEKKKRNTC

[9] = PKRi 1 μM, −60 mV, kynurenic acid
[10] = PKRi 1 μM, −60 mV, kynurenic acid 2 mM, TTX 1 μM

For `O=C1Nc2ccc3ncsc3c2/C1=C/c1cnc[nH]1` [PKRi], the “Auditory fear memory (freezing 24 hr after training)” value (WT mice) was “enhanced”, the “Contextual fear memory (freezing 24 hr after training)” value (WT mice) was “enhanced” and the “LTP elicited by a single 100 Hz train (1 s)” value ([1]; PKRi, Pkr−/− slices) was “did not further potentiate LTP”. The “LTP after a single high frequency train (100 Hz for 1 s)” value (WT hippocampal slices; PKRi 1 μM, WT slices, at 220 min p<0.001) was “converts E-LTP into L-LTP”, the PKR autophosphorylation (PKR [2]) was “blocks” and the “Decrease of CA1 population spike amplitude during short high frequency train (cumulative inhibition)” value ([3]; 5 pulses at 100 Hz) was “minimal or no high-frequency stimulation-induced decrease in spike amplitude”. For the same molecule, the Duration of burst ([3]; PKRi 1 μM, bicuculline 2 μM) was “increased”, the “Number of evoked spikes” value ([3]; PKRi 1 μM, bicuculline 2 μM) was “increased” and the “After-discharges after a single stimulus” value ([3]; PKRi 1 μM, in presence of bicuculline 2 μM, half-maximal stimulation at 0.03 Hz) was “pronounced after-discharges”. The “Initial slope of EPSPs” value ([3]; PKRi 1 μM, single stimulus) was “did not alter”, the Presynaptic afferent volley ([3]; PKRi 1 μM, single stimulus) was “did not alter” and the “Amplitude of population spikes” value ([3]; PKRi 1 μM, single stimulus, WT slices) was “enhanced”. For the same molecule, the “Population spikes (firing) in slices pre-treated with bicuculline” value ([3]; WT slices pre-treated with the GABAA antagonist bicuculline) was “no further enhancement of firing”, the “Abnormal EEG activity present (mice affected)” value (adult WT mice; PKRi 0.1 mg/kg i.p., recorded one hour after injection, absent in all WT controls (n=6), p<0.01) was 6 out of 7 and the “Cortical EEG activity” value (adult WT mice; PKRi 0.1 mg/kg, adult WT mice) was “induces acute spiking (d) and rhythmic bursts (e)”. For the same molecule, the PKR activity ex-vivo (PKR [4]) was “known to block PKR activity ex-vivo”, the “Amplitude of evoked IPSCs” value [5] was “did not alter” and the Population spikes [6] was “no effect”. For the same molecule, the “Evoked EPSCs” value ([7]; PKRi 1 μM bath application, picrotoxin 100 μM, −70 mV) was “no effect”, the “Amplitude of sIPSCs” value [7, 9] was “not amplitude” and the “Frequency of sIPSCs” value [7, 9] was “decreases”. For the same molecule, the “Amplitude of mIPSCs” value [7, 10] was “but not their amplitude”, the “Frequency of mIPSCs” value [7, 10] was “decreased” and the “Amplitude of pharmacologically isolated monosynaptic eIPSCs” value ([7]; PKRi bath-application, 50 μM APV, 10 μM CNQX, 10 μM CGP55845, 0 mV, half-maximal stimulation) was “reduced”. The “Electrically isolated eIPSCs” value ([7]; PKRi, holding potential 0 mV, half-maximal stimulation) was “Reduced”, the “Amplitude or frequency of sEPSCs, mEPSCs or eEPSCs” value ([7]; WT slices treated with PKRi) was “not significantly changed” and the “mIPSCs Rise Time 10%-90%” value ([7]; WT slices treated with PKRi) was 1.36 ± 0.07 ms. For the same molecule, the “mIPSCs τW” value ([7]; WT slices treated with PKRi) was 21.28 ± 1.24 ms, the “sIPSCs Rise Time 10%-90%” value ([7]; WT slices treated with PKRi) was 1.68 ± 0.18 ms and the “sIPSCs τW” value ([7]; WT slices treated with PKRi) was 22.89 ± 0.78 ms. The “Paired-pulse depression of IPSCs (IPSC2/IPSC1)” value ([7]; at 50 ms inter-stimulus interval) was “reduced” and the “PKR activity in the hippocampus in vivo” value (PKR [8]) was “known to block PKR activity in the hippocampus in vivo”.
For `COc1ccc(C[C@H]2NC[C@H](O)[C@H]2OC(C)=O)cc1` [anisomycin], the “Facilitated L-LTP after a single train” value ([1]; anisomycin, Pkr−/− slices, at 220 min p<0.01) was “suppressed”.
With `CN1C(=O)CN=C(c2ccccc2)c2cc(Cl)ccc21` [diazepam] the “L-LTP after a single train” value [1] was “prevented the induction of L-LTP”, the “L-LTP induction by four trains at 100 Hz” value (WT hippocampal slices) was “blocked L-LTP induction” and the “L-LTP induced by four tetanic trains” value (WT hippocampal slices; low concentration of diazepam (11 μM), WT slices) was “no effect”.
